Read-outs that look alike come from different tables or passages of the source.
Tests used:
zebrafish embryos = assay: BDF injection into the vasculature of zebrafish embryos, in vivo polymerization and viability
Description: Finally, BDF monomer with 1% w/w TPGS in the PBS media solution was injected in the vasculature of 3-day post-fertilization zebrafish embryos to validate the whole blood catalyzed in vivo polymerization of BDF to synthesize n-PBDF. The fish embryos were injected at the end of the tail (FIG. 5A) with different BDF concentrations from 1 mM to 15 mM and kept inside an incubator at 34° C. […] To prevent the misconception of pigmentation in the skin of the embryos as a darkened yolk, zebrafish embryos were treated with 1-phenyl 2-thiourea (PTU). PTU treatment removed the pigment from the skin, allowing for better visualization of the darkening of the embryo's yolk (FIG. 5C). In the case of a 1 mM BDF concentration injection, a clear yolk was observed similar to that seen in control zebrafish embryos. Significant darkening happened when the concentration was increased to 10 mM. Furthermore, 15 mM BDF concentration was injected into the zebrafish embryo, where the yolk was even darker with respect to the 10 mM BDF concentration injection. To characterize the darkened yolk, UV-Vis-NIR measurements were collected on all zebrafish embryos with different concentrations of BDF injections along with the control fish (only PBS injection). […]

red blood cells = assay: Hemolysis assay on reaction components; type: cell-based; conditions: 0.2 mg/mL
Description: To evaluate the efficacy of polymerization without the need for constant stirring, a method was employed whereby the solution was placed in an incubator with a rocker at 37° C. Upon introduction of whole blood into the reaction vessel without stirring, a sluggish reaction was observed, and the vessel turned black after three hours into the reaction. […] Based on these observations from the reaction without stirring, it was deduced the lysis of the RBCs with the BDF monomer. To confirm, a hemolysis assay was used on the various reaction components and with different BDF concentrations. […] This explained the initial slow reaction and formation of n-PBDF without stirring.

A549 lung cancer cells = type: cell-based
Excerpt: Because the BDF monomer can lyse the RBCs, the cytotoxicity of the BDF monomer and n-PBDF in A549 lung cancer cells was further studied. It was observed that the n-PBDF polymer is non-toxic to cancer cells, with cell viability remaining close to 100% regardless of the polymer concentration. […] Although the BDF monomer is toxic in cancer cells, it may not impede the in vivo polymerization process, as once the polymerization reaction begins, the toxicity quickly diminishes.

[1] = Solubility of BDF monomer; type: physicochemical
Excerpt: Though existing methods of synthesizing n-PBDF are efficient, they are unsuitable within living systems. […] Existing synthesis methods also require high temperatures and employ dimethyl sulfoxide (DMSO) as a solvent. To overcome this limitation, methods were investigated for synthesizing n-PBDF in aqueous media using surfactants, which are also utilized in the synthesis of conductive polymer nanoparticles. […] Using TPGS as a surfactant, n-PBDF can be polymerized in aqueous media through emulsion polymerization. By incorporating an insignificant amount (5%) of DMSO and 1% w/w TPGS, this method was found suitable for use in biological systems, as discussed below.

[2] = Subcutaneous administration of BDF and n-PBDF solutions in mice, observation and complete blood count; conditions: mouse, in vivo, sc
Excerpt: Furthermore, the non-toxicity of the polymerization process and the resulting polymer was confirmed by subcutaneously administering BDF and n-PBDF solutions in mice. […] The investigations reported below explored the use of n-PBDF to modulate the neural activity of cortical pyramidal neurons in mice acute brain slices, showing the interaction of n-PBDF with the neurons at a cellular level, leading to a decrease in the intrinsic excitability of the neurons. […] These and other aspects of the method will be more fully appreciated from the following discussion of the investigations.

[3] = system: primary motor cortex (M1); set-up: species or system mice; conditions: mouse, in vivo

Row | Molecule | embryos alive (zebrafish embryos; after 24 h incubation, BDF 1 mM to 15 mM, 34° C.) | toxicity of BDF injection and in vivo polymerization (zebrafish embryos; zebrafish embryos) | hemolysis (red blood cells) | cell viability (A549 lung cancer cells) | cell viability (A549 lung cancer cells; human, 72 h, 5 μg/mL) | cell viability (A549 lung cancer cells; human, 72 h, 0.167 mg/mL) | solubility in aqueous media ([1]; aqueous media) | solubility in organic solvents ([1]; organic solvents) | complete blood count (CBC), signs of acute toxicity [2] | physical stress or discomfort [2] | retention at the injection site [3]
1 | O=C1Cc2cc3c(cc2O1)CC(=O)O3 [BDF, 3,7-dihydrobenzo[1,2-b:4,5-b′]difuran-2,6-dione] | at least 80% | almost no toxicity | approximately 40% | slightly improved cell viability at higher concentrations | approximately 75% | around 10% | insoluble | limited solubility | no signs of acute toxicity except for a minor level of hemolysis | No physical stress or discomfort was observed | –
2 | n-doped poly(3,7-dihydrobenzo[1,2-b:4,5-b′]difuran-2,6-dione [n-PBDF] | – | – | – | ~100% | – | – | – | – | – | – | remained in the injection site for extended periods

From patent US20250241942A1, “METHODS OF SYNTHESIZING CONDUCTIVE POLYMERS IN BIOLOGICAL SYSTEMS AND METHODS OF USING CONDUCTIVE POLYMERS” (Purdue Research Foundation, priority 2024, published 2025)
